# Results taken from patent US20260284050A1, “ACTIVATORS OF THE COLD STRESS RESPONSE AND USES THEREOF” (priority 2023, published 2026).
# Read-outs that look alike come from different tables or passages of the source. Where a SMILES comes first, the peptide text is derived from it. The star is where a group is joined. Cbz = O=C(OCc1ccccc1)*
# Tests used:
# SP1+MCRE-MHI = test: cells; settings: HEK293FT; for fold induction at 20 µM: Homo sapiens
# Experimental: Briefly, Lipofectamine 3000 (Thermofisher Scientific, L3000015) was used to transfect the SP1+MCRE indicator into the HEK293FT cell line. 24 h after transfection, 30000 cells were plated into each well of a 96 well black well plate. 48 h after transfection the cells were exposed to FDA Approved Drug Screening Library (L1300-Z298012) via the High Throughput Screening Services (ChemCore) at Johns Hopkins University. Each drug was exposed in 20 μM concentration. Total well GFP was read with the ClarioStarPlus Plate Reader (settings: gain 1500, 470-15 excitation and emission 515-20 at focal height 2.6) 16, 28, and 40 h after exposure of the library. Increase in fluorescence was calculated with dividing GFP reads from positive control at each time point with GFP reads of each well exposed to drug at the same timepoint for wells in the same lane. Compounds were validated in same concentration (20 μM). For validation cells were exposed to the drug for 24 hours, and evaluated by FACS as described in the section Transfection of indicators into cell lines.
# To explore this in an unbiased manner, a systematic library drug screen (1953 FDA-approved inhibitors) was performed using HEK293FT cells transfected with the SP1+MCRE-MHI. […] Cells transfected with said MHI were exposed to the drug library (20 μM concentration) and fluorescence was measured after 16-, 28- and 40-hours of drug exposure. Drugs that could increase the indicator's fluorescence at least >3.75 times at one of the time points were further investigated.
# HEK293 cells = test: Cell cycle phase evaluation of HEK293 cells; type: cell-based, human; settings: for cell cycle arrest: HEK293 cells exposed to compound
# Experimental: To exclude the possibility of cell cycle arrest or increased apoptosis, cell cycle phase of HEK293 cells exposed to Pozitinib and Entacapone was evaluated. […] Similarly, there were no signs of activation of the MHIs after exposure to an apoptotic agent.
# SP1, RBM3 and CIRBP = test: Western blot of SP1, RBM3 and CIRBP after compound exposure; type: cell-based, human; settings: 24 h exposure at either 32° C. or 37° C.
# Experimental: (§1) Cells were washed with PBS and then lysed for 30 min on ice in RIPA buffer (50 mM Tris HCl ph8, 150 mM NaCl, 1% NP-40, 1% Sodium deoxycholate, 0.1% SDS, 2 mM EDTA, phosphatase inhibitor (Cell signaling, Cat. #5870S), and Halt™ Protease Inhibitor Cocktail (Thermo Fisher, Cat. #78437). The lysates were centrifuged at 16,000×g for 20 minutes at 4° C. and the supernatants were collected. The supernatants were diluted with 4× loading buffer (Li-cor) and heated at 95° C. for 5 mins. The protein concentration was measured using Pierce™ BCA Assay Kit (Thermo Fisher). 20-30 μg protein samples were loaded into gels and separated by SDS-PAGE. They were transferred to polyvinylidene fluoride (PVDF) membranes and blocked in 5% bovine serum albumin in Tris-buffered saline with Tween 20 for 1 hour. Primary antibodies (rabbit anti-CIRBP, 1:2000, Cat. #10209-2-AP, Proteintech; rabbit anti-RBM3, 1:1000, CAT. #14363-1-AP, Proteintech; rabbit anti-SP1 1:1000, CAT. #21962-1-AP, Proteintech; mouse anti-Lamin 1, 1:5000, CAT. #66095-1-Ig, Proteintech; rabbit anti-SMYD5, 1:1000, in-house; rabbit anti-Phospho-SP1, 1:1000, CAT. #PA5-104771, Proteintech) were applied to respective membranes after washing, and incubated at 4° C. overnight. […] After washing, the protein bands were visualized on the Odyssey® CLx Infrared Imaging System and quantified by Image J software.
# SP1-MHI = test: FACS validation in HEK293 cells with Cas9 and SP1-MHI; type: cell-based, human; settings: 20 μM
# Experimental: HEK293 cell lines were transfected when 70-90% confluency was reached. Either Lipofectamine™ 2000 or 3000 (Thermofisher Scientific, #11668027, #L3000015) was used according to the manufacture's protocol. The fluorescence of the indicators was measured via FACS up to 48 hours after transfection. FACS data were analysed with the FlowJo Software, where gates were created on living cells, single cells, GFP positive cells and the fluorescence for that population was measured.
# Each drug was exposed in 20 μM concentration. […] Compounds were validated in same concentration (20 μM).
# HEK293 cells with Cas9 and SP1-MHI were individually exposed to each compound (20 μM) for 16 hours at either 32° C. or 37° C. followed by FACS. […] (Entacapone, Poziotinib), indicating activation of response with drug without hypothermic stimulus.
# SMYD5 = SMYD5 levels at 32° C. with proteasome inhibition; type: cell-based, human; settings: 6 hour exposure
# Experimental: as §1, with “software. […]” for “software.”
# SP1 = test: RT-qPCR of endogenous SP1 relative to GAPDH; type: cell-based, human; settings: 16 h exposure at 37° C.
# Experimental: (§2) Total RNA from cells incubated at 32° C. or 37° C. was isolated, using Direct-zol™ RNA Microprep (Zymo Research, R2062), according to the manufacturer's instructions. The concentration of RNA was measured by NanoDrop™ One Microvolume UV-Vis Spectrophotometer (Thermo Scientificv™) followed by cDNA synthesis with High-Capacity cDNA Reverse Transcription Kit (Applied Biosystems™, 4368814) on MiniAmp™ Thermal Cycler (Applied Biosystems™). qPCR was performed using Luna® Universal qPCR Master Mix on CFX384™ Real-Time PCR Detection System (Bio-Rad). Each biological replicate of the RT-qPCR assay in this study was carried out in technical triplicates. Any technical replicate that deviated from other replicates by 0.4 cycle threshold (Ct) was removed from calculations of average Ct values. The primers used in this study are as follows: […]
# (§3) To evaluate effects on the endogenous loci (CIRBP, RBM3 and SP1) real time quantitative polymerase chain reaction (RT-qPCR) was carried out after 16 h of either 32° C. or 37° C.—with or without the exposure to the compound during that time.
# RBM3 = test: RT-qPCR of endogenous RBM3 relative to GAPDH; type: cell-based, human; settings: 16 h exposure at 37° C.
# Experimental: as §2, §3
# CIRBP = test: RT-qPCR of endogenous CIRBP relative to GAPDH; type: cell-based, human; settings: 16 h exposure at 37° C.
# Experimental: as §2, §3
# [1] = 40 h, read-out: increase in fluorescence of the SP1+MCRE-MHI
smiles,measurement,setting,value
CN(C)C/C=C/C(=O)Nc1cc2c(Nc3ccc(F)c(Cl)c3)ncnc2cc1O[C@H]1CCOC1 [Afatinib],fold induction at 20 µM,SP1+MCRE-MHI; [1],> 3.75
C[C@@H](NCCCc1cccc(C(F)(F)F)c1)c1cccc2ccccc12 [Cincalcet],increase in fluorescence of the SP1+MCRE-MHI,"SP1+MCRE-MHI; 20 μM, at one of the time points (16, 28, 40 h of drug exposure)",> 3.75 times
Cc1nc(Nc2ncc(C(=O)Nc3c(C)cccc3Cl)s2)cc(N2CCN(CCO)CC2)n1 [Dasatinib],fold induction at 20 µM,SP1+MCRE-MHI; [1],> 3.75
CCN(CC)C(=O)/C(C#N)=C/c1cc(O)c(O)c([N+](=O)[O-])c1 [Entacapone],percentage of total cells in the S phase of cell cycle,HEK293 cells; 16 hours exposure at both 32° C. and 37° C.,slight increase
same,cell cycle arrest,HEK293 cells,Any signs of cell cycle arrest
same,"Western blot of SP1, RBM3 and CIRBP with versus without compound","SP1, RBM3 and CIRBP",significant difference (P<0.05
same,mean fluorescence of SP1-MHI by FACS,SP1-MHI; 16 hours at 32° C.,significantly (P<0.01) potentiate fluorescence levels
same,mean fluorescence of SP1-MHI by FACS,SP1-MHI; 16 hours at 37° C.,"significantly (P<0.001, P<0.0001) increased fluorescence"
same,fold induction at 20 µM,SP1+MCRE-MHI; [1],> 3.75
CC[C@H]1OC(=O)[C@H](C)[C@@H](O[C@H]2C[C@@](C)(OC)[C@@H](O)[C@H](C)O2)[C@H](C)[C@@H](O[C@@H]2O[C@H](C)C[C@H](N(C)C)[C@H]2O)[C@](C)(O)C[C@@H](C)C(=O)[C@H](C)[C@@H](O)[C@]1(C)O [Erythromycin],fold induction at 20 µM,SP1+MCRE-MHI; [1],> 3.75
CS(=O)(=O)CCNCc1ccc(-c2ccc3ncnc(Nc4ccc(OCc5cccc(F)c5)c(Cl)c4)c3c2)o1 [Lapatinib],fold induction at 20 µM,SP1+MCRE-MHI; [1],> 3.75
CC(C)C[C@@H](C=O)NC(=O)[C@H](CC(C)C)NC(=O)[C@H](CC(C)C)NC(=O)OCc1ccccc1 [MG132] (Cbz-Leu-Leu-Leu-aldehyde),SMYD5 levels,SMYD5,increases levels of SMYD5 at 32 °C to levels seen at 37 °C
C=CCN1CC[C@]23c4c5ccc(O)c4O[C@H]2C(=O)CC[C@@]3(O)[C@H]1C5 [Naloxone],fold induction at 20 µM,SP1+MCRE-MHI; [1],> 3.75
Cc1[nH]c(/C=C2\C(=O)Nc3ccccc32)c(C)c1CCC(=O)O [Orantinib],fold induction at 20 µM,SP1+MCRE-MHI; [1],> 3.75
C=CC(=O)N1CCC(Oc2cc3c(Nc4ccc(Cl)c(Cl)c4F)ncnc3cc2OC)CC1 [Poziotinib],cell cycle arrest,HEK293 cells,Any signs of cell cycle arrest
same,mean fluorescence of SP1-MHI by FACS,SP1-MHI; 16 hours at 37° C.,"significantly (P<0.001, P<0.0001) increased fluorescence"
same,SP1 mRNA expression,SP1,trend towards increase
same,RBM3 mRNA expression,RBM3,significantly (P<0.05) increased
same,fold induction at 20 µM,SP1+MCRE-MHI; [1],> 3.75
same,CIRBP mRNA expression,CIRBP,trend towards increase
C=CC(=O)Nc1cccc(Nc2nc(Nc3ccc(N4CCN(C(C)=O)CC4)cc3OC)ncc2C(F)(F)F)c1 [Rociletinib],fold induction at 20 µM,SP1+MCRE-MHI; [1],> 3.75
CC/C(=C(\c1ccccc1)c1ccc(OCCN(C)C)cc1)c1ccccc1 [Tamoxifen],fold induction at 20 µM,SP1+MCRE-MHI; [1],> 3.75
Cc1ccc(C(=O)c2cc(O)c(O)c([N+](=O)[O-])c2)cc1 [Tolcapone],fold induction at 20 µM,"SP1+MCRE-MHI; 16 h, read-out: relative increase of fluorescence of the SP1+MCRE-MHI compared to control",1.8
same,fold induction at 20 µM,"SP1+MCRE-MHI; 28 h, read-out: relative increase of fluorescence of the SP1+MCRE-MHI compared to control",1.7
same,fold induction at 20 µM,"SP1+MCRE-MHI; 40 h, read-out: relative increase of fluorescence of the SP1+MCRE-MHI compared to control",1.9
